For one data set, the target named is T1, opioid receptor delta (Homo sapiens, UniProt P41143).
T1 construct: expressed in transfected cells
Nature of the data set: GTPγ[35S] binding assay, antagonism of BW-373U86. Type of data set: biochemical. To be noted: read-out: Delta functional Ki (GTPγ[35S] binding). In short, it runs like this:
(§1)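 Membranes with […] GTPγ[35S] in Tris pH 7.4 buffer with MgCl2, NaCl, 30 μM GDP; antagonist (10^−10–10^−5 M) preincubated 10 min at 30 °C, then challenged with BW-373U86 1 nM (delta), dynorphin-A 10 nM (kappa) or endorphin 1 μM (mu) for 1 h at 30 °C. Scintillation read-out; Ki derived.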
(In general: GTPγS is a poorly hydrolysed GTP analogue; its binding reports G protein activation.)

In another data set the target is T2, opioid receptor kappa (Homo sapiens, UniProt P41145).
T2 construct: expressed in transfected cells
The data set can be described thus: GTPγ[35S] binding assay, antagonism of dynorphin-A. The class given is biochemical. The conditions noted are these: read-out: Kappa functional Ki (GTPγ[35S] binding). In short, it runs like this:
as §1

The target of another data set is T3, opioid receptor mu (Homo sapiens, UniProt P35372).
T3 construct: expressed in transfected cells
The data set can be described thus: GTPγ[35S] binding assay, antagonism of endorphin. The class given is biochemical. The conditions noted are these: read-out: Mu functional Ki (GTPγ[35S] binding). In short, it runs like this: as §1

Data set [1] can be described thus: Fasted induced refeeding model. The class given is in vivo, Sprague-Dawley rats. To be noted: rats after overnight fast, compared with vehicle. Here is the method:
The following screen is used to evaluate the efficacy of test compounds for inhibiting food intake in Sprague-Dawley rats after an overnight fast.
Male Sprague-Dawley rats were obtained from Charles River Laboratories, Inc. (Wilmington, Mass.). The rats are individually housed and fed powdered chow. They are maintained on a 12 hour light/dark cycle and received food and water ad libitum. The animals are acclimated to the vivarium for a period of one week before testing is conducted. Testing is completed during the light portion of the cycle.
To conduct the food intake efficacy screen, rats are transferred to individual test cages without food the afternoon prior to testing, and the rats are fasted overnight. After the overnight fast, rats are dosed the following morning with vehicle or test compounds. A known antagonist is dosed (3 mg/kg) as a positive control, and a control group receives vehicle alone (no compound). […] Individual rat food intake is recorded continuously at 10-minute intervals for a period of two hours. When required, food intake is recorded manually using an electronic scale; food is weighed every 30 minutes after food is provided up to four hours after food is provided. Compound efficacy is determined by comparing the food intake pattern of compound-treated rats to vehicle and the standard positive control.

Data set [2] in a line: Spontaneous food intake model. The conditions noted are these: rats dosed before onset of dark cycle, compared with vehicle. The class given is in vivo, Sprague-Dawley rats. Here is the method: Male Sprague-Dawley rats may be obtained from Charles River Laboratories, Inc. (Wilmington, Mass.). The rats were individually housed and fed powdered chow. They were maintained on a 12 hour light/dark cycle and received food and water ad libitum. The animals were acclimated to the vivarium for a period of one week before testing is conducted. Rats were transferred to individual test cages 30 hours before the study. The rats were administered test compound or vehicle alone (no compound) 15-30 minutes prior to the onset of the dark cycle. The test compounds were dosed at ranges between 0.1 and 100 mg/kg depending upon the compound. The standard vehicle was 0.5% (w/v) methylcellulose or 30% β-cyclodextrin in water and the standard route of administration was oral. However, different vehicles and routes of administration are used to accommodate various compounds when required. Food intake was monitored using an automated Columbus Instruments system (Columbus, Ohio). Individual rat food intake was recorded continuously at 10-minute intervals, starting at the time of dosing, for a period of at least 12 hours. Compound efficacy was determined by comparing the food intake pattern of compound-treated rats to vehicle.

For data set [3] the following is noted: rat, in vivo; cited from earlier work.
A further data set has as its target mu opioid receptor (Homo sapiens, UniProt P35372). To be noted: mu opioid receptor subtype; cited from earlier work.
Another data set has as its target kappa opioid receptor (Homo sapiens, UniProt P41145). To be noted: kappa opioid receptor subtype; cited from earlier work.
A further data set addresses delta opioid receptor (Homo sapiens, UniProt P41143). The conditions noted are these: cited from earlier work.
For data set [4] the following is noted: rodents; cited from earlier work.
For data set [5] the following is noted: humans; cited from earlier work.
The conditions of data set [6]: cited from earlier work.
The subject of another data set is TNF-α production. The conditions noted are these: rats; cited from earlier work.
For data set [7] the following is noted: bile duct ligated rats; cited from earlier work.

In general, melting point refers to the temperature of the solid-liquid transition.

Each structure is given as a SMILES string. Read-outs that look alike come from different tables or passages of the source.

Sequence of delta opioid receptor (P41143 whole entry): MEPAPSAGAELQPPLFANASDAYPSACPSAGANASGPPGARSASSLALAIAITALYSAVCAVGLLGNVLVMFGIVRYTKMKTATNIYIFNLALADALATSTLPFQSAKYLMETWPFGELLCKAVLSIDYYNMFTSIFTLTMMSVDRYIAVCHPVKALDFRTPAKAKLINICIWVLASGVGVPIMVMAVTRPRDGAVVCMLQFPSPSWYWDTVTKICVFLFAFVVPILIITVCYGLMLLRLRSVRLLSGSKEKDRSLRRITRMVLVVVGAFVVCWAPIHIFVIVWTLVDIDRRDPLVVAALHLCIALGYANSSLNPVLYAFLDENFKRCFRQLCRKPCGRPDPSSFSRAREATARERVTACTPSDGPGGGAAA
T1 sequence (P41143 whole entry): as above
T3 sequence (P35372 whole entry): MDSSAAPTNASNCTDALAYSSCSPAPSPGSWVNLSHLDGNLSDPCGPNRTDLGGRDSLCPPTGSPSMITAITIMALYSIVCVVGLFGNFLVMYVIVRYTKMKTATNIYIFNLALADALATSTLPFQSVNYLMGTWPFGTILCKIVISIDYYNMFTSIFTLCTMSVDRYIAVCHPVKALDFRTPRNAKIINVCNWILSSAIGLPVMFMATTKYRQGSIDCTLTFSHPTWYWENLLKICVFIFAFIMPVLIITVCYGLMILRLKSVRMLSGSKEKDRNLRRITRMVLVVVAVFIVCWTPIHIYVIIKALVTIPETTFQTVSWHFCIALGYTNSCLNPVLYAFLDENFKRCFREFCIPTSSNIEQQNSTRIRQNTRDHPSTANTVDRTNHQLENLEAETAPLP
Sequence of mu opioid receptor (P35372 whole entry): as above
T2 sequence (P41145 whole entry): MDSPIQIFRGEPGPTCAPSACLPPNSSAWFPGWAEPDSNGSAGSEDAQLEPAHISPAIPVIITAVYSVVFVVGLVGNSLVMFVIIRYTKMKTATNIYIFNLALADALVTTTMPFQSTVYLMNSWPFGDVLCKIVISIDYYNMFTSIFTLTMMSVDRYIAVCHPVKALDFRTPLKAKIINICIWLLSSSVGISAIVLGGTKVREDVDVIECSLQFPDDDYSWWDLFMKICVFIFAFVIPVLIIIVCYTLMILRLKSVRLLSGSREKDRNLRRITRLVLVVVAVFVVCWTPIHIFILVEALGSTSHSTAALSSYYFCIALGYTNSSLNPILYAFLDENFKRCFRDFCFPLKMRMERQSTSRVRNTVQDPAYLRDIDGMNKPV
Sequence of kappa opioid receptor (P41145 whole entry): as above

For the compound `CC(C)CCNCc1ccc(-c2cccc(-c3nnc[nH]3)c2)c(F)c1.Cl` [E7-02, [2-Fluoro-3′-(4H-[1,2,4]-triazol-3-yl)-biphenyl-4-ylmethyl]-(3-methyl-butyl)-amine hydrochloride salt], the Ki was 1400 nM on opioid receptor delta, 5.9 nM at opioid receptor kappa and 3.3 nM on opioid receptor mu. For the same compound, the food intake entry in data set [1] and in [2] was “significant reduction in food intake” throughout.
As to `C[C@H]1CN(CC[C@H](O)C2CCCCC2)CC[C@@]1(C)c1cccc(O)c1` [LY255582], in data set [3], the anorectic effects entry is “robust anorectic effects”.
On to `C[C@H]1CN(CCC(O)C2CCCCC2)CC[C@@]1(C)c1cccc(O)c1` (stereo partly drawn) [LY515300, 1-(3-cyclohexyl-3-hydroxypropyl)-3(R),4(R)-dimethyl-4-(3-hydroxyphenyl)piperidine], for which the binding affinity result on mu opioid receptor is on record as “subnanomolar”; on kappa opioid receptor, “subnanomolar”; at delta opioid receptor, “lower affinity”.
`Cc1cc(C(N)=O)c(F)cc1-c1ccc(CNCCC(C)C)c(F)c1.Cl.O` (hydrate or solvate) returned a melting point of 229 °C.
Regarding `O=C1CC[C@@]2(O)[C@H]3Cc4ccc(O)c5c4[C@@]2(CCN3CC2CC2)[C@H]1O5` [Naltrexone], the weight loss efficacy result in data set [4] and in data set [5] was “poor weight loss efficacy” throughout. Also, the insulin sensitivity entry in [6] (Polycystic Ovarian Syndrome (PCOS) women with hyperinsulinemia) and in [6] (post-menopausal women with hyperinsulinemia) was “improve insulin sensitivity” each time. In addition, in the data set with TNF-α production, the “LPS-stimulated TNF-α production” value is reported as “inhibit LPS-stimulated TNF-α production”. In addition, in data set [7], the liver fibrosis result is “attenuate liver fibrosis”.

(Values after patent US7615651B2, “Diaryl, dipyridinyl and aryl-pyridinyl derivatives and uses thereof” (Pfizer Inc., priority 2006, dated 2009).)
